Test results from patent publication US20070117743A1, “New antitumoral compounds” (priority 2003, published 2007).

How the values were obtained:
Type in all cases: cell-based, human
SK-MEL-28 = experiment: SRB colorimetric assay of cell growth and viability, SK-MEL-28; conditions: 48 hours exposure
SK-OV-3 = experiment: SRB colorimetric assay of cell growth and viability, SK-OV-3; conditions: 48 hours exposure
Outline: (§1)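 Here, cells grow drug-free for 18 h, then receive sample dilutions from 10 down to 10^−8 μg/mL for 48 h at 37° C. Protein-bound SRB is solubilized in Tris and quantified at 490 nm.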

HMEC-1 = experiment: SRB colorimetric assay of cell growth and viability, HMEC-1; conditions: 48 hours exposure
Excerpt: (§2) The finality of this assay is to interrupt the growth of a “in vitro” tumor cell culture by means a continued exhibition of the cells to the sample to be testing.
(§3) A colorimetric type of assay, using sulforhodamine B (SRB) reaction has been adapted for a quantitative measurement of cell growth and viability [following the technique described by Philip Skehan, et al. (1990), New colorimetric cytotoxicity assay for anticancer drug screening, J. Natl. Cancer Inst., 82:1107-1112].
(§4) This form of the assay employs 96 well cell culture microplates of 9 mm diameter (Faircloth, 1988; Mosmann, 1983). Most of the cell lines are obtained from American Type Culture Collection (ATCC) derived from different human cancer types.
(§5) Cells are maintained in RPMI 1640 10% FBS, supplemented with 0.1 g/l penicillin and 0.1 g/l streptomycin sulfate and then incubated at 37° C., 5% CO2 and 98% humidity. For the experiments, cells were harvested from subconfluent cultures using trypsin and resuspended in fresh medium before plating.
(§6) Cells are seeded in 96 well microtiter plates, at 5×10^3 cells per well in aliquots of 195 μL medium, and they are allowed to attach to the plate surface by growing in drug free medium for 18 hours. Afterward, samples are added in aliquots of 5 μL in a ranging from 10 to 10^−8 μg/mL, dissolved in DMSO:EtOH:PBS (0.5:0.5:99). After 48 hours exposure, the antitumor effect are measured by the SRB methodology: cells are fixed by adding 50 μL of cold 50% (wt/vol) trichloroacetic acid (TCA) and incubating for 60 minutes at 4° C. Plates are washed with deionized water and dried. One hundred μL of SRB solution (0.4% wt/vol in 1% acetic acid) is added to each microtiter well and incubated for 10 minutes at room temperature. […] Optical densities are read on a automated spectrophotometric plate reader at a single wavelength of 490 nm.
(§7) The values for mean+/− SD of data from triplicate wells are calculated. Some parameters for cellular responses can be calculated: GI=growth inhibition, TGI=total growth inhibition (cytostatic effect) and LC=cell killing (cytotoxic effect).

[1] = as above; conditions: human, HMEC-1 cells; 48 hours exposure; read-out: LC50 H-MEC-1
Excerpt: as §2, §3, §4, §5, §6, §7

LoVo = experiment: SRB colorimetric assay of cell growth and viability, LoVo; conditions: 48 hours exposure
DU-145 = experiment: SRB colorimetric assay of cell growth and viability, DU-145; conditions: 48 hours exposure
A-549 = experiment: SRB colorimetric assay of cell growth and viability, A-549; conditions: 48 hours exposure
PANC-1 = experiment: SRB colorimetric assay of cell growth and viability, PANC-1; conditions: 48 hours exposure
LNCaP = experiment: SRB colorimetric assay of cell growth and viability, LNCaP; conditions: 48 hours exposure
IGROV-ET = experiment: SRB colorimetric assay of cell growth and viability, IGROV-ET; conditions: 48 hours exposure
K-562 = experiment: SRB colorimetric assay of cell growth and viability, K-562; conditions: 48 hours exposure
IGROV-1 = experiment: SRB colorimetric assay of cell growth and viability, IGROV-1; conditions: 48 hours exposure
SK-BR-3 = experiment: SRB colorimetric assay of cell growth and viability, SK-BR-3; conditions: 48 hours exposure
HT-29 = experiment: SRB colorimetric assay of cell growth and viability, HT-29; conditions: 48 hours exposure
LoVo-Dox = experiment: SRB colorimetric assay of cell growth and viability, LoVo-Dox; conditions: 48 hours exposure
Outline: as §1

With `C/C=C1\NC(=O)[C@H](Cc2ccccc2)NC(=O)[C@@H](C(C)C)NC(=O)[C@@H]([C@@H](C)CC)NC(=O)[C@H](NC(=O)[C@H](NC(=O)[C@H](CCCCN)NC(=O)[C@H]2CCCN2C(=O)[C@H](NC(=O)[C@@H](NC(=O)[C@@H](NC(=O)[C@H](NC(=O)CCCC(C)C)C(C)C)[C@@H](C)O)C(C)C)C(C)C)[C@@H](C)CC)[C@@H](C)OC(=O)[C@H](C(C)C)NC1=O` [Compound 5, [Lys^8]-KF] as the compound, how does the GI50 (SK-MEL-28) read?
Its GI50 is 811 nM.

And the “TGI MEL-28” value (SK-MEL-28)?
Its value is 1.87E−06 Molar.

And the CC50 (SK-MEL-28; read-out: LC50 MEL-28)?
Its CC50 is 4300 nM.

And the “TGI SKOV-3” value (SK-OV-3)?
Its value is 4.08E−07 Molar.

And the GI50 (SK-OV-3; read-out: GI50 SKOV-3)?
Its GI50 is 196 nM.

What about the CC50 (SK-OV-3; read-out: LC50 SKOV-3) of the same compound?
The CC50 was 1490 nM.

What about the “TGI H-MEC-1” value (HMEC-1) of the same compound?
The value was 2.63E−08 Molar.

What about the GI50 (HMEC-1; read-out: GI50 H-MEC-1) of the same compound?
Its GI50 is 15.6 nM.

And the CC50 at 48 h [1]?
The CC50 at 48 h was 44.6 nM.

And the GI50 (LoVo)?
Its GI50 is 155 nM.

What about the “TGI LOVO” value (LoVo) of the same compound?
Its value is 2.71E−07 Molar.

And the CC50 (LoVo; read-out: LC50 LOVO)?
The CC50 was 478 nM.

What about the GI50 (DU-145) of the same compound?
The GI50 was 18.1 nM.

What about the LC50 (concentration causing 50% net cell kill) (DU-145) of the same compound?
Its LC50 (concentration causing 50% net cell kill) is 56.9 nM.

What about the “TGI DU-145” value (DU-145) of the same compound?
Its value is 3.20E−08 Molar.

What about the “TGI A-549” value (A-549) of the same compound?
Its value is 2.75E−07 Molar.

What about the GI50 (A-549; read-out: GI50 A-549) of the same compound?
Its GI50 is 129 nM.

What about the CC50 (A-549; read-out: LC50 A-549) of the same compound?
The CC50 was 582 nM.

And the GI50 (PANC-1)?
Its GI50 is 1140 nM.

And the “TGI PANC-1” value (PANC-1)?
Its value is 2.37E−06 Molar.

What about the CC50 (PANC-1; read-out: LC50 PANC-1) of the same compound?
The CC50 was 4920 nM.

What about the “TGI LN-caP” value (LNCaP) of the same compound?
Its value is 2.61E−08 Molar.

And the GI50 (LNCaP; read-out: GI50 LN-caP)?
Its GI50 is 14.2 nM.

And the CC50 (LNCaP; read-out: LC50 LN-caP)?
The CC50 was 47.9 nM.

What about the GI50 (IGROV-ET) of the same compound?
The GI50 was 240 nM.

And the “TGI IGROV-ET” value (IGROV-ET)?
Its value is 4.88E−07 Molar.

What about the CC50 (IGROV-ET; read-out: LC50 IGROV-ET) of the same compound?
Its CC50 is 2830 nM.

What about the GI50 (K-562) of the same compound?
Its GI50 is 771 nM.

What about the “TGI K-562” value (K-562) of the same compound?
Its value is 1.65E−06 Molar.

And the CC50 (K-562; read-out: LC50 K-562)?
The CC50 was 3550 nM.

What about the GI50 (IGROV-1) of the same compound?
The GI50 was 183 nM.

And the LC50 (concentration causing 50% net cell killing) (IGROV-1)?
The LC50 (concentration causing 50% net cell killing) was 1230 nM.

And the “TGI IGROV” value (IGROV-1)?
Its value is 3.71E−07 Molar.

And the GI50 (SK-BR-3)?
Its GI50 is 169 nM.

And the LC50 (SK-BR-3)?
The LC50 was 554 nM.

And the “TGI SK-BR-3” value (SK-BR-3)?
The value was 3.06E−07 Molar.

What about the “TGI HT-29” value (HT-29) of the same compound?
The value was 2.81E−07 Molar.

And the GI50 (HT-29; read-out: GI50 HT-29)?
Its GI50 is 158 nM.

What about the CC50 (HT-29; read-out: LC50 HT-29) of the same compound?
The CC50 was 498 nM.

And the GI50 (LoVo-Dox)?
The GI50 was 162 nM.

What about the “TGI LOVO-DOX” value (LoVo-Dox) of the same compound?
The value was 2.98E−07 Molar.

And the CC50 (LoVo-Dox; read-out: LC50 LOVO-DOX)?
The CC50 was 552 nM.
